Reference: US20250339399A1, “SUPRAMOLECULAR SELF-ASSEMBLY SYSTEM” (Beijing Creatron Institute of Pharmaceutical Research Co., …, priority 2022, published 2025)

What was measured:
[1] = cited from earlier work
[2] = Guest molecule concentration after incubation in initial medium without polymer (Comparative Example 1); format: physicochemical; conditions: 37° C., pH 6.8 phosphate buffer
Method in brief: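 Dissolved guest content measured by HPLC of centrifuged supernatants (37° C., 13000 rpm, 5 min) sampled at 0.5 h, 3 h and 6 h. Incubation was polymer-free at 37° C.±0.5° C. in buffers of pH 2.0-7.4; nominal loading was set by maximum clinical dose.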

[3] = Binary (carrier), ternary and quaternary supramolecular self-assembly systems of polymer, carrier building block and target: guest concentration over incubation time (Examples 1-56); format: physicochemical
Method in brief: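 Targets were incubated at 37 °C in pH 2.0–7.4 buffers with 0.5% polymer alone or with carrier building blocks, after 0.5 h sonication for ternary systems, and shaken at 200 rpm. Samples at 0.5–6 h were centrifuged and diluted ≥10-fold, and dissolved target was quantified by HPLC; surfactant was added if needed.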

[4] = Binary supramolecular self-assembly systems of polymer and target: guest concentration over incubation time (Comparative Example 2); format: physicochemical
Description: Experiments were conducted according to the steps in Comparative Example 1, and quantitative analysis was carried out using the analytical method for each target to investigate the regulation ability […] stacking.

[5] = Comparative Example 3: systems with 10% (W/V) natural building block; format: physicochemical; conditions: Comparative Example 3: 10% 319; 6 h
Description: An initial medium of each above target molecule was used to prepare a solution containing 10% Rubusoside A (313) or 10% (W/V) Mogroside V (319), the solution was sonicated at 37° C. to prepare a solution containing about 100 mg/mL building block 313 or 319 per 1 mL of the initial medium, the clear medium containing the natural building blocks was incubated in a 37° C. constant temperature air bath shaker for 1 hour, and subsequent operations and sample detection followed the steps of Comparative Examples 1 and 2. Considering that each natural building block had different UV absorption and was added at a high concentration, the more specific HPLC method was still used for quantitative determination on the solution concentration of each guest molecule, […].

[6] = human use; bw: body weight; cited from earlier work
[7] = ternary: 0.25% 102H + 0.1% 319, 6 h
[8] = ternary: 0.25% 102H + 1.0% 319, 6 h
[9] = ternary: 0.25% 102M + 0.5% 302, 6 h

With `COc1cc(/C=C/C(=O)CC(=O)/C=C/c2ccc(O)c(OC)c2)ccc1O` [Curcumin] as the molecule, how does the LogP [1] read?
The LogP was 4.12.

What about the “Concentration of guest molecule measured after different incubated time” value (shortened to “Concentration … after different incubated time”) ([2]; 0.5 h) of the same molecule?
Its value is 1.7 µg/mL.

What about the “Concentration … after different incubated time” value ([2]; 3 h) of the same molecule?
Its value is 9.4 µg/mL.

And the “Concentration … after different incubated time” value ([2]; 6 h)?
Its value is 8.6 µg/mL.

And the “Concentration of guest molecule in solution” value (from here on “Concentration … in solution”) ([3]; quaternary: 0.25% 204 (102M+103E5) + 302, 6 h)?
The value was 34.2 µg/mL.

And the “Concentration … in solution” value [3, 7]?
The value was 676.6 µg/mL.

What about the “Times that in Comparative Example 3” value [3, 7] of the same molecule?
Its value is 81.5 times.

What about the “Concentration … in solution” value [3, 8] of the same molecule?
The value was 516.3 µg/mL.

And the “Times that in Comparative Example 3” value [3, 8]?
The value was 62.2 times.

And the “Concentration … in solution” value ([3]; ternary: 0.25% 102M + 0.05% 314, 0.5 h)?
The value was 140.0 µg/mL.

What about the “Concentration … in solution” value ([3]; ternary: 0.25% 102M + 0.05% 314, 6 h) of the same molecule?
The value was 5.2 µg/mL.

And the “Concentration … in solution” value ([3]; ternary: 0.25% 102M + 0.1% 314, 4 h)?
The value was 1036.7 µg/mL.

And the “Concentration … in solution” value [3, 9]?
The value was 862.1 µg/mL.

What about the “Times that of the initial medium” value [3, 9] of the same molecule?
Its value is 100.6 times.

And the “Concentration … in solution” value ([3]; ternary: 0.25% 102M + 1.0% or 1.5% 314, 0.5 h-4.0 h)?
The value was roughly 1000 µg/mL.

And the “Concentration … in solution” value ([3]; ternary: 0.25% 102M + 1.0% or 1.5% 314, 6 h)?
The value was 900 µg/mL.

What about the “Concentration … in solution” value ([3]; ternary: 102H + 313, 4 h) of the same molecule?
Its value is “about 609.8 μg/mL”.

What about the “Concentration … in solution” value ([3]; ternary: 102H + 317, 4 h) of the same molecule?
Its value is roughly 638.6 µg/mL.

What about the “Concentration of the target in the solution measured after different incubation time” value (“Concentration … after different incubation time” below) ([4]; binary system with 0.5% polymer 101, incubation 0.5 h) of the same molecule?
The value was 219.7 µg/mL.

And the “Concentration … after different incubation time” value ([4]; binary system with 0.5% polymer 101, incubation 3 h)?
Its value is 120.1 µg/mL.

What about the “Concentration … after different incubation time” value ([4]; binary system with 0.5% polymer 101, incubation 6 h) of the same molecule?
The value was 50.3 µg/mL.

What about the “Concentration … after different incubation time” value ([4]; binary system with 0.5% polymer 102, incubation 0.5 h) of the same molecule?
Its value is 747.8 µg/mL.

And the “Concentration … after different incubation time” value ([4]; binary system with 0.5% polymer 102, incubation 3 h)?
Its value is 643.4 µg/mL.

And the “Concentration … after different incubation time” value ([4]; binary system with 0.5% polymer 102, incubation 6 h)?
The value was 576.7 µg/mL.

What about the “Concentration … after different incubation time” value ([4]; binary system with 0.5% polymer 103, incubation 0.5 h) of the same molecule?
Its value is 76.1 µg/mL.

And the “Concentration … after different incubation time” value ([4]; binary system with 0.5% polymer 103, incubation 3 h)?
Its value is 52.9 µg/mL.

And the “Concentration … after different incubation time” value ([4]; binary system with 0.5% polymer 103, incubation 6 h)?
The value was 32.7 µg/mL.

What about the “Concentration … after different incubation time” value ([4]; binary system with 0.5% polymer 106, incubation 0.5 h) of the same molecule?
The value was 102.6 µg/mL.

What about the “Concentration … after different incubation time” value ([4]; binary system with 0.5% polymer 106, incubation 3 h) of the same molecule?
Its value is 118.1 µg/mL.

What about the “Concentration … after different incubation time” value ([4]; binary system with 0.5% polymer 106, incubation 6 h) of the same molecule?
The value was 90.3 µg/mL.

And the “Concentration … after different incubation time” value ([4]; binary system with 0.5% polymer 107, incubation 0.5 h)?
Its value is 107.4 µg/mL.

What about the “Concentration … after different incubation time” value ([4]; binary system with 0.5% polymer 107, incubation 3 h) of the same molecule?
Its value is 8.3 µg/mL.

What about the “Concentration … after different incubation time” value ([4]; binary system with 0.5% polymer 107, incubation 6 h) of the same molecule?
The value was 7.7 µg/mL.

And the “Concentration … after different incubation time” value ([4]; binary system with 0.5% polymer 110, incubation 0.5 h)?
The value was 6.0 µg/mL.

What about the “Concentration … after different incubation time” value ([4]; binary system with 0.5% polymer 110, incubation 3 h) of the same molecule?
Its value is 8.3 µg/mL.

And the “Concentration … after different incubation time” value ([4]; binary system with 0.5% polymer 110, incubation 6 h)?
The value was 10.0 µg/mL.

What about the “Concentration … in solution” value ([4]; binary: 0.25% 102M, 2 h) of the same molecule?
The value was 962.6 µg/mL.

And the “Concentration … in solution” value ([4]; binary: 0.25% 102M, 6 h)?
The value was 6.4 µg/mL.

What about the “Concentration … in solution” value ([4]; binary: 0.5% 102M, 6 h) of the same molecule?
Its value is 576.6 µg/mL.

What about the “Times that of the initial medium” value ([4]; binary: 0.5% 102M, 6 h) of the same molecule?
The value was 67 times.

What about the “Concentration … in solution” value [5] of the same molecule?
Its value is 8.3 µg/mL.

For `C=C1C[C@@]23CC[C@H]4[C@@](C)(CCC[C@@]4(C)C(=O)O)[C@@H]2CC[C@]1(O[C@@H]1O[C@H](CO)[C@@H](O)[C@H](O[C@@H]2O[C@H](CO)[C@@H](O)[C@H](O)[C@H]2O)[C@H]1O[C@@H]1O[C@H](CO)[C@@H](O)[C@H](O)[C@H]1O)C3` [compound 307, Rebaudioside B], which “Acceptable daily intake (ADI)” value [6] is on record?
The value was 6 mg/kg bw/day.
